Experimental data taken from ChEMBL document CHEMBL1177745, “Isolation, characterization, and bioactivity of cyclotides from the Micronesian plant Psychotria leptothyrsa” (J Nat Prod, 2010).

Tested on: U-937/GTB
Assay: Cytotoxicity against human U937/GTB cells by fluorometric microculture cytotoxicity assay
Format: functional, cell-based

CC[C@@H](C)[C@@H]1NC(=O)[C@@H]2CSSC[C@@H]3NC(=O)[C@H](C(C)C)NC(=O)[C@H](CCCCN)NC(=O)[C@H](CC(N)=O)NC(=O)[C@@H](CCCCN)NC(=O)[C@@H]4CSSC[C@H](NC(=O)[C@H](CO)NC(=O)[C@H](CCC(=O)O)NC(=O)CNC(=O)[C@H](CSSC[C@H](NC(=O)CNC(=O)[C@H](CC(C)C)NC(=O)[C@H](C(C)C)NC(=O)[C@H](CO)NC(=O)[C@H](CO)NC1=O)C(=O)N[C@@H](CO)C(=O)N4)NC(=O)[C@@H]1CCCN1C(=O)[C@H]([C@H](C)CC)NC(=O)[C@H](C(C)C)NC(=O)CNC(=O)[C@H](CC(=O)O)NC(=O)[C@H](CCCNC(=N)N)NC(=O)[C@H](Cc1ccc(O)cc1)NC3=O)C(=O)N[C@@H](C(C)C)C(=O)N[C@@H](Cc1ccccc1)C(=O)N[C@@H]([C@@H](C)CC)C(=O)N1CCC[C@H]1C(=O)N2
IC50: 3.5 µM

CC[C@H](C)[C@@H]1NC(=O)CNC(=O)[C@@H](CC(N)=O)NC(=O)[C@H](Cc2ccccc2)NC(=O)[C@H](Cc2ccc(O)cc2)NC(=O)[C@@H]2CSSC[C@@H]3NC(=O)CNC(=O)[C@H](CC(C)C)NC(=O)[C@H](Cc4ccccc4)NC(=O)[C@H](C(C)C)NC(=O)[C@H]4CSSC[C@H](NC(=O)[C@H](CO)NC(=O)[C@H](CSSC[C@H](NC(=O)[C@H](C)NC1=O)C(=O)NCC(=O)N[C@@H](CCC(=O)O)C(=O)N[C@@H](CO)C(=O)N4)NC(=O)CNC(=O)[C@@H]1CCCN1C(=O)[C@H]([C@@H](C)CC)NC(=O)[C@H](Cc1ccccc1)NC3=O)C(=O)N[C@@H](CCCCN)C(=O)N[C@@H](CO)C(=O)N[C@@H](CCCCN)C(=O)N[C@@H](C(C)C)C(=O)N2 [PSYLE A]
IC50: 26 µM
